Assay results as given in US20180290964A1, “CRYSTALLINE SOLID FORMS OF THE ACETATE SALT OF (1S,3S,4R)-4-((3AS,4R,5S,7AS)-4-(AMINOMETHYL)-7A-METHYL-1-METHYLENEOCTAHYDRO-1H-INDEN-5-YL)-3-(HYDROXYMETHYL)-4-METHYLCYCLOHEXANOL” (Aquinox Pharmaceuticals (Canada) Inc., priority 2015, published 2018).
“Also recorded” adds a separate entry of the source.

How the values were obtained:
[1] = Accelerated aging analysis by XRPD (Method J); format: physicochemical; conditions: 40° C. and 75% relative humidity for 48 hours (2 days)
Protocol: Samples collected from the crystallization conditions were subjected, as is, to accelerated aging conditions of 40° C. and 75% relative humidity for 48 hours, via standard methods and analyzed by XRPD.
Dry solid samples from Examples 1 and 2, were transferred into a boron-glass capillary with 0.3 mm outer diameter. The capillary was mounted on the goniometer head and placed in the D8 Advance Bruker-AXS Diffractometer equipped with solid state LynxEye detector. The capillary was spinning during data recording, at 15 rpm. The XRPD platform was calibrated using Silver Behenate for the long d-spacings and Corundum for the short d spacings.
Data collection for Compound 1 Form A and Compound 1 Form B, were carried out, in transmission mode, at ambient conditions (˜23° C. and ˜100 kPa) using monochromatic CuKα1 radiation (1.54056 Å) in the 2Θ region between 4° and 45°, with an exposure time of 90 s for each frame and 0.016° increments. No additional corrections were made during data collection.

[2] = Handling in the presence of water (Example 8, methanol/water 60/40), form checked by XRPD; format: physicochemical; conditions: handled in the presence of water, 40% water (Example 8)
Protocol: 20.0 mg of amorphous Compound 1 was solid dosed in a 1.8 mL vial and 100 μL of a methanol/water mixture (60/40 (v/v)) was added at ambient temperature. The solution was subjected to a temperature profile of heating and cooling between 50° C. and 5° C. for three cycles, each heating cycle was at 10° C./hr while the cooling cycles were at −20° C./hr, −10° C./hr and −5° C./hr, for each cycle, respectively, finishing at ambient temperature. During the entire experiment the mixture was stirred at 30 rpm using a magnetic stirrer and a TEFLON®-coated magnetic stirring bar with dimensions 7mm in length and 2 mm in width.
Upon completion of the thermo-profile, the solid was collected by centrifugation (3000 rpm for 10 minutes) followed by solvent mixture removal by Pasteur pipette and dried under ambient conditions for one hour, before being analyzed by XRPD.

Compound: C=C1CC[C@H]2[C@H](CN)[C@@H]([C@@]3(C)CC[C@H](O)C[C@@H]3CO)CC[C@]12C.CC(=O)O [Compound 1 Form A, acetate salt of (1S,3S,4R)-4-((3aS,4R,5S,7aS)-4-(aminomethyl)-7a-methyl-1-methyleneoctahydro-1H-inden-5-yl)-3-(hydroxymethyl)-4-methylcyclohexanol]
- Solid form stability after accelerated aging (XRPD diffractogram versus FIG. 2) [1]: equivalent to FIG. 2; also recorded: without converting to another form
- Stability to exposure to water / hydrate formation (XRPD) [2]: resistant to hydrate formation
